Activity calls are given as the source filed them.
Columns and labels:
Genome polyprotein = Genome polyprotein (dengue virus type 2, UniProt P29990); test: Dengue-2 NS5 methyltransferase inhibitors, primary screen, biochemical, confirmation dose response (AID 588689); assay type: functional
[1] = molecular target: Ras and Rab interactor 1/Tyrosine-protein kinase ABL1 (Homo sapiens, UniProt P00519+Q13671); assay type: functional;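 further: biochemical TR-FRET dose-response test measuring inhibition of binding between Rin1 and Abl proteins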
[2] = molecular target: T1, Calpain-2 catalytic subunit (Sus scrofa, UniProt P43367); test: pig calpain II inhibitor potency, dose response, biochemical, fluorogenic peptide substrate (AID 1420); assay type: functional
T1 sequence (P43367 whole entry): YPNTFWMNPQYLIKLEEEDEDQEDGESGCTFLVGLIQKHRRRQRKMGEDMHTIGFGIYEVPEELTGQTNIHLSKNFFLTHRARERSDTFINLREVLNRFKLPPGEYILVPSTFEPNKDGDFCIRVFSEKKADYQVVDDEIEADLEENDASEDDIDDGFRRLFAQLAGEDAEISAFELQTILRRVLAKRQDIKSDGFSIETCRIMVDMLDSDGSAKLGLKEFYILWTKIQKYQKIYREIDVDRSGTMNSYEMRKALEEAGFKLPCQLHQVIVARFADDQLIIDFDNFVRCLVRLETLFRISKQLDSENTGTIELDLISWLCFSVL

[3] = inhibitors of clade B AD8 Env fusion, dose response, cell-based, cherry-pick (AID 652062); assay type: functional;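 further: luciferase signal from cell-cell fusion driven by HIV-1 clade B AD8 Env; potency is for inhibitors of fusion seen as a drop in luminescence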
Cysteine protease ATG4B = molecular target: T2, Cysteine protease ATG4B (Homo sapiens, UniProt Q9Y4P1); assay type: functional;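 further: Fluorescence-based dose-response confirmation assay measuring inhibition of ATG4B activity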
T2 sequence (Q9Y4P1 whole entry): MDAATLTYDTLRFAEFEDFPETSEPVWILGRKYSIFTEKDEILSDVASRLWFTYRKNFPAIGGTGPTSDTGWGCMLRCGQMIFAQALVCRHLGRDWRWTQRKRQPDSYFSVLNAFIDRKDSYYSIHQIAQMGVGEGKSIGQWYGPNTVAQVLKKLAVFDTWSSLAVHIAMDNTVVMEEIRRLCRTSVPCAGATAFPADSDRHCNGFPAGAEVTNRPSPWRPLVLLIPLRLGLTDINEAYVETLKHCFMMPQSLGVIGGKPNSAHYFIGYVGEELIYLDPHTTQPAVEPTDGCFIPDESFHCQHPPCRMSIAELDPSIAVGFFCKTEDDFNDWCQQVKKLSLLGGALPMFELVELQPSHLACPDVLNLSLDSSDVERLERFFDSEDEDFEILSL

[4] = HEp-2 cell cytotoxicity, dose response, cytotoxicity control for RSV inhibitor project, HTS (AID 2410); assay type: functional; conditions: human respiratory syncytial virus
Hexokinase HKDC1 = molecular target: T3, Hexokinase HKDC1 (Homo sapiens, UniProt Q2TB90); test: HKDC1 hexokinase activators, dose response, biochemical, W721R variant (AID 504730); assay type: functional
T3 sequence (Q2TB90 whole entry): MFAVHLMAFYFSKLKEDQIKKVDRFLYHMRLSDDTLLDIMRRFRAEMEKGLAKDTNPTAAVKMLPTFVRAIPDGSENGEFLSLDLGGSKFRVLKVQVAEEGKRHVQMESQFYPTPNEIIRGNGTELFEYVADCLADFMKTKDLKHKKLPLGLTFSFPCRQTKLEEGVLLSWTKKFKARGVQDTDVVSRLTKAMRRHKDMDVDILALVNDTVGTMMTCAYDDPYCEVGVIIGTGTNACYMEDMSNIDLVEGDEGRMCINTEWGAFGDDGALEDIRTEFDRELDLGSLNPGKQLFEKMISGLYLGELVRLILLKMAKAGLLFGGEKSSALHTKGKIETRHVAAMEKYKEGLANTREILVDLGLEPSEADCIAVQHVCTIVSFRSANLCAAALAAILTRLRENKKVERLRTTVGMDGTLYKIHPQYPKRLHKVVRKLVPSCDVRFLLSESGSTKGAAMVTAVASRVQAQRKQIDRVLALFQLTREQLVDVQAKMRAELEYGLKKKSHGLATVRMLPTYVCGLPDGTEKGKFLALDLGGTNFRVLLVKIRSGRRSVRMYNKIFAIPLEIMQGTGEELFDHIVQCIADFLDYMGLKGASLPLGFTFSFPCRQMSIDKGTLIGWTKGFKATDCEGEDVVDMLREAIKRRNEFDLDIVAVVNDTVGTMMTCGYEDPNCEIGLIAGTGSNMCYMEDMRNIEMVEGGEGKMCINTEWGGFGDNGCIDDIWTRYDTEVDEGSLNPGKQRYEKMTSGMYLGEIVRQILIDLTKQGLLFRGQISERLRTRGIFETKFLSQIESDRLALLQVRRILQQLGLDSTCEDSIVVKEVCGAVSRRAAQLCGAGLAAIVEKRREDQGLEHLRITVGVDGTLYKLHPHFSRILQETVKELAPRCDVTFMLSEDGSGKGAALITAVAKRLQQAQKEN

[5] = molecular target: Voltage-gated N-type calcium channel alpha-1B subunit/Amyloid beta A4 precursor protein-binding family A member 1 (Homo sapiens, UniProt Q00975+Q02410); assay type: protein assay
[6] = molecular target: Sphingosine 1-phosphate receptor 4 (Homo sapiens, UniProt O95977); test: Fluorescence dose response cell-based high throughput screening assay for antagonists of the Sphingosine 1-Phosphate Receptor 4 (S1P4). [Related pubchem assays: 1524 (Confirmation in triplicates.), 1510 (Primary screen.)]; assay type: functional
Sphingosine 1-phosphate receptor 4, sequence (O95977 whole entry, the tested form may be a part): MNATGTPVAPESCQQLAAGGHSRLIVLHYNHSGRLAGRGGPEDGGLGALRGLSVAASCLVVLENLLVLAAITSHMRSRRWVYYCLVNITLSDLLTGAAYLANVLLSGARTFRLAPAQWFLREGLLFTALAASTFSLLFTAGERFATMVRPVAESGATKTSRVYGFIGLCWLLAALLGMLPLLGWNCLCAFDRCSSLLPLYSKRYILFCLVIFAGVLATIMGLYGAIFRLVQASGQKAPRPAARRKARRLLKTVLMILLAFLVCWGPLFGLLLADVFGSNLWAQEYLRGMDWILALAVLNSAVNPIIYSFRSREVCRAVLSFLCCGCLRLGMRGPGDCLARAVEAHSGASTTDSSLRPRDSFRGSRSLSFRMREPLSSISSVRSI

Fatty acid synthase [7] = molecular target: T4, Fatty acid synthase (Homo sapiens, UniProt P49327); test: FAS thioesterase domain inhibitors, dose response, biochemical, kinetic fluorescence intensity (AID 624326); assay type: functional;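 further: rate of fluorescence rise from hydrolysis of a fluorogenic O-methyl fluorescein ester substrate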
T4 sequence (P49327 whole entry, the tested form may be a part): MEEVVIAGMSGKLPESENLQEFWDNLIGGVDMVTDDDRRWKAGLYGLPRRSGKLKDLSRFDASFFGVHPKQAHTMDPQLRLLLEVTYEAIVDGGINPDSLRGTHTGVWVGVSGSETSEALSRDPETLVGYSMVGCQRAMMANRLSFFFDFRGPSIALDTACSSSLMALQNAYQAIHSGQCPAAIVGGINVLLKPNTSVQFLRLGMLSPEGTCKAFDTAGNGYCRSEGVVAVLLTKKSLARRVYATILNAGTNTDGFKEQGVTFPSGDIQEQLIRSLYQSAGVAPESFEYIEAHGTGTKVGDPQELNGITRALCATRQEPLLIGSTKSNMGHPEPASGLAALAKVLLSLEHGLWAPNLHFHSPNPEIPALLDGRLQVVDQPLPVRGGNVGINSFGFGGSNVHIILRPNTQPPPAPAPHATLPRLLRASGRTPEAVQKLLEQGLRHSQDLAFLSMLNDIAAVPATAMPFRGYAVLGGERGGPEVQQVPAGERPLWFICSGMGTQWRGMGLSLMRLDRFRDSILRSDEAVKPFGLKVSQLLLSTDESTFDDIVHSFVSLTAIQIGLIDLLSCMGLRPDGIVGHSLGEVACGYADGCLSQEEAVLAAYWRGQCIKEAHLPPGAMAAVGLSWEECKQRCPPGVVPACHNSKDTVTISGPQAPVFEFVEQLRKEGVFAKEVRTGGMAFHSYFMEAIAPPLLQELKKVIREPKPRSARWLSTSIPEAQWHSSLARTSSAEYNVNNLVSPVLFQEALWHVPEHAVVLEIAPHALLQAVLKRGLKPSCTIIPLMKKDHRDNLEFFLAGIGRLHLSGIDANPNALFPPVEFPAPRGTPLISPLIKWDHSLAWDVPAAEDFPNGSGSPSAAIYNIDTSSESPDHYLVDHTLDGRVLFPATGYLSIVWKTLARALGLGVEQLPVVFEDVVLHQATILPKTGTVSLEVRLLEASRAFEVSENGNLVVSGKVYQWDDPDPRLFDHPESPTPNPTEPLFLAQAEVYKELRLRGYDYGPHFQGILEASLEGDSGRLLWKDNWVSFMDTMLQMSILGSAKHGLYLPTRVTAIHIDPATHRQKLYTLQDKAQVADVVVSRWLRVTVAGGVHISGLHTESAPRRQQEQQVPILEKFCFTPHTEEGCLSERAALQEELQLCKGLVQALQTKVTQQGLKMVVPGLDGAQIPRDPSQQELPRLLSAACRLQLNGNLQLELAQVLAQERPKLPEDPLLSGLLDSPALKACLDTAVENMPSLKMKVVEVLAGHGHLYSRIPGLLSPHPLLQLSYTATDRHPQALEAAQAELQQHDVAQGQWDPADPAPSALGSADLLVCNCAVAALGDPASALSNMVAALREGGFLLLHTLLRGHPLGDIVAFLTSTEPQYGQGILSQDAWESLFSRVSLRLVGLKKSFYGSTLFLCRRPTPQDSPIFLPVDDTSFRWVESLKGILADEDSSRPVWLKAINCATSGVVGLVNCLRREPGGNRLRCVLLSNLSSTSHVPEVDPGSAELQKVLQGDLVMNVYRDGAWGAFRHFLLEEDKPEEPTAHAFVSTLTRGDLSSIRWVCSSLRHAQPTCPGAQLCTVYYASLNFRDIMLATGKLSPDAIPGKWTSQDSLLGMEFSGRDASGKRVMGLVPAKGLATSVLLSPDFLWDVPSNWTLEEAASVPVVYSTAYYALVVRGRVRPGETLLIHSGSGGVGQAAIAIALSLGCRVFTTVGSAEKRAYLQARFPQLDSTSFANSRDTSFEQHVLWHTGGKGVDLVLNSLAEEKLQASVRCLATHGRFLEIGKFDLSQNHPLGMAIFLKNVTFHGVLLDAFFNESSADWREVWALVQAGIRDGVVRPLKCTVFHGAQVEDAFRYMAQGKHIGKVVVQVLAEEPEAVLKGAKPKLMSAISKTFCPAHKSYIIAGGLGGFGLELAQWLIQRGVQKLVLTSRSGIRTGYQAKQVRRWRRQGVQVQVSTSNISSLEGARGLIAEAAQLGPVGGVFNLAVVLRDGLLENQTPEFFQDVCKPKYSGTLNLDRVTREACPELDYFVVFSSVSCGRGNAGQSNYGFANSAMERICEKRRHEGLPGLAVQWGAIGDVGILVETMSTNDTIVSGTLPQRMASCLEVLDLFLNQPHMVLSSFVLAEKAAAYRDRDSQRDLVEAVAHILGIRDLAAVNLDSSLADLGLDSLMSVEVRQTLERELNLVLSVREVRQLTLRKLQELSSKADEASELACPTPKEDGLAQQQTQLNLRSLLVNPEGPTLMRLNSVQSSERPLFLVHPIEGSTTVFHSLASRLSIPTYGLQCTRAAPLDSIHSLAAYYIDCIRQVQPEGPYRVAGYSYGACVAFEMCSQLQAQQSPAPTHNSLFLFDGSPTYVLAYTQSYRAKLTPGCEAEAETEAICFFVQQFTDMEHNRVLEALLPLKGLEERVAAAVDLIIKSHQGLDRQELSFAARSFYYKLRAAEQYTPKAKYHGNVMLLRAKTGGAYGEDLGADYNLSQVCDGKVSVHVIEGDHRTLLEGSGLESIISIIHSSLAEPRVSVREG

Fatty acid synthase [8] = molecular target: T4, Fatty acid synthase; test: FAS thioesterase domain inhibitors, dose response, biochemical, endpoint fluorescence intensity, uHTS hits (AID 624327); assay type: functional;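 further: fluorescence from hydrolysis of an O-methyl fluorescein acyl ester substrate by the enzyme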
[9] = Shn3 3'UTR reporter inhibitors, dose response, cell-based, Clone20 osteoblasts, firefly luciferase, cherry-picked (AID 624132); assay type: functional;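 further: firefly luciferase luminescence from reporter carrying the Shn3 3'UTR in osteoblasts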

Genome polyprotein, sequence (P29990 2492-3391 limits assumed): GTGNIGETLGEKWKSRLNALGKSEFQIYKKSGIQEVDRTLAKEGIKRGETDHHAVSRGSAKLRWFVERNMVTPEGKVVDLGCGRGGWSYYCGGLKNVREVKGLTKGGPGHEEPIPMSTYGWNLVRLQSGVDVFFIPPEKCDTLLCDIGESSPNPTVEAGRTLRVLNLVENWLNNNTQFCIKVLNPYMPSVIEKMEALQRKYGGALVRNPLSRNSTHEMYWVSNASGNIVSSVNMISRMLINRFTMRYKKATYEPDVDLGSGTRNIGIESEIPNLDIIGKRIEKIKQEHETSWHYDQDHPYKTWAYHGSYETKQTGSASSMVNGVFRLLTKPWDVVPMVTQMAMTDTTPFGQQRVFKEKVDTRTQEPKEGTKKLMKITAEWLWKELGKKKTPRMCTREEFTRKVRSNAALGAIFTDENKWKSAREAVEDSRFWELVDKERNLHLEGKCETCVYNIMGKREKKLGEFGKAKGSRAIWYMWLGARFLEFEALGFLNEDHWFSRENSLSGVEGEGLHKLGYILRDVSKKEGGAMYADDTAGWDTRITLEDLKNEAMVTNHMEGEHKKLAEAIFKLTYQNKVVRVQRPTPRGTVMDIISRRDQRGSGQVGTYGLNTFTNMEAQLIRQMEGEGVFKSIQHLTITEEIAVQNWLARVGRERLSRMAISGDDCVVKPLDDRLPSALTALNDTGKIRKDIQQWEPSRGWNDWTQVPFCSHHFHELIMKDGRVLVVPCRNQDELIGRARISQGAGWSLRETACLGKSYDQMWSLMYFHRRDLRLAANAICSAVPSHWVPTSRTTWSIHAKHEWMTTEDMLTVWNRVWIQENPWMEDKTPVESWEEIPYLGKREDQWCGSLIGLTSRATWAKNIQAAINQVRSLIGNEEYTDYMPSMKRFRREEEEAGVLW

In the case of `Cc1ccc(C)c(S(=O)(=O)/N=C2\C=C(NS(=O)(=O)c3ccccc3)C(=O)c3ccccc32)c1`, the IC50 (Genome polyprotein) is reported as 97.8 µM (active).

In the case of `O=C(NC1(O)C(=O)c2ccccc2C1=O)c1ccccc1`, the IC50 [1] is reported as 25.5 µM (inactive).

With `CCCCCCCCCCCCCCCCn1cc[n+](C)c1` the IC50 [2] was 11.4 µM (not active), the EC50 (cells) was 0.44 µM (active) and the AC50 [3] was 5.26 µM (active). The IC50 (Cysteine protease ATG4B) was 4.47 µM (active).

For `Cc1cc(C)nc(/N=c2/ssnc2Cl)c1`, the CC50 [4] was 17.4 µM (active), the EC50 (Hexokinase HKDC1) was 43.1 µM (inactive) and the IC50 [5] was > 50 µM (inactive).

In the case of `O=C(Nc1ccccc1Cl)/C(Cl)=C(\Cl)[S+]([O-])c1ccccc1` (stereo not drawn), the IC50 [6] is reported as 0.541 µM (active), the IC50 (Fatty acid synthase [7]) is reported as 3.28 µM (active) and the IC50 (Fatty acid synthase [8]) is reported as 4.66 µM (active). For the same compound, the AC50 [9] was 0.438 µM (active).

Reference: ChEMBL document CHEMBL1201862, “PubChem BioAssay data set” (2004)
